Laboratory results: patent publication US10100022B2, “Sphingosine kinase inhibitors” (University of Virginia Patent Foundation, priority 2014, dated 2018)

Assays:
[1] = target: T1, human sphingosine kinase type 1 (hSPHK1) (Homo sapiens, UniProt Q9NYA1); test: Sphingosine kinase assay, recombinant human SPHK1 ([32P]S1P product, scintillation counting); format: biochemical; conditions: read-out: activity hSPHK1 (range estimate of KI)
T1 construct: made in house; host or cells: Sf9 insect cells (baculovirus)
T1 sequence (Q9NYA1 whole entry): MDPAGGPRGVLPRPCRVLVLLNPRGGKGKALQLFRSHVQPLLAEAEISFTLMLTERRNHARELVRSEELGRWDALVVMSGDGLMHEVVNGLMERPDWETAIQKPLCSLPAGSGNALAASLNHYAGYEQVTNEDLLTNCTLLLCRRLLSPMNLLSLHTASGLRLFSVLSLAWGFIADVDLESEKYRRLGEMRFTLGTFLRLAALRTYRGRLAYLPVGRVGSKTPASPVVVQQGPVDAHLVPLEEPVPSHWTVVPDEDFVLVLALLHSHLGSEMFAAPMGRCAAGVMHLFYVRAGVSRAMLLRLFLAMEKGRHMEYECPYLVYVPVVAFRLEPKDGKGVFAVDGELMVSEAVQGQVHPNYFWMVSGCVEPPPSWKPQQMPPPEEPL
Description: (§1) Recombinant baculovirus encoding human sphingosine kinase type 1 (SPHK1) was used to infect Sf9 insect cells and after 2-5 days, cleared lysates were prepared and used without further purification. Human SPHK2, which was partially purified from baculovirus-infected Sf9 cell lysates, was purchased from a commercial source. Sphingosine kinase assays were performed using standard protocols. Product [^32P]S1P was recovered by binding to cation exchange paper and quantified by scintillation counting.

[2] = target: T2, human sphingosine kinase type 2 (hSPHK2) (Homo sapiens, UniProt Q9NRA0); test: Sphingosine kinase assay, recombinant human SPHK2 ([32P]S1P product, scintillation counting); format: biochemical; conditions: read-out: activity hSPHK2 (range estimate of KI)
T2 construct: purchased; host or cells: Sf9 insect cells (baculovirus)
T2 sequence (Q9NRA0 1-654): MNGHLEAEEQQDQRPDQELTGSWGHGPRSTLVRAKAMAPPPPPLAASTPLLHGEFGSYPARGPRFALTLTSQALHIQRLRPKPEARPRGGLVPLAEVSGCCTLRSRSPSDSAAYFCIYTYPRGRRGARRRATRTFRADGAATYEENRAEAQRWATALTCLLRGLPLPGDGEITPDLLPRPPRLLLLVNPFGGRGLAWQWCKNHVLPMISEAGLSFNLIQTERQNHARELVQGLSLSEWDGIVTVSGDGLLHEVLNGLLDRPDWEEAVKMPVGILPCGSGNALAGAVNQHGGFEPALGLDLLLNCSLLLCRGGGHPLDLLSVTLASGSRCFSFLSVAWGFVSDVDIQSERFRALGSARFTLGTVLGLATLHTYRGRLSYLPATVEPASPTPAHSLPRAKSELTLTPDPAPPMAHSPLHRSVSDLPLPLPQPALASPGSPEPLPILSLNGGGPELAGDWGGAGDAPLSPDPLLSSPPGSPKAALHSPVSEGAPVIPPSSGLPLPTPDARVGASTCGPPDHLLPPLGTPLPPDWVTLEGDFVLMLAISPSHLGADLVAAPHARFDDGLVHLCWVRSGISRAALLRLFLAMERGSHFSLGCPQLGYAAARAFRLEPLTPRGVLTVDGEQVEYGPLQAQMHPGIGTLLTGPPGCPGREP
Description: as §1

Row | Compound | Ki [1] | Ki [2]
1 | Cc1ccc(COc2ccc3cc(-c4noc([C@@H]5CCCN5C(=N)N)n4)ccc3c2)cc1 [Compound 64A, (S)-amino(2-(3-(6-((4-methylbenzyl)oxy)naphthalen-2-yl)-1,2,4-oxadiazol-5-yl)pyrrolidin-1-yl)methaniminium chloride] | > 10 µM | > 10 µM
2 | N=C(N)N1C[C@H](O)C[C@H]1c1nc(-c2ccc(OCCCc3ccc4c(c3)OCCO4)c(C(F)(F)F)c2)no1 [Compound 59A] | > 10 µM | > 10 µM
3 | N=C(N)N1CCC[C@H]1c1nc(-c2ccc(OC/C=C\c3ccc(C(F)(F)F)cc3)c(C(F)(F)F)c2)no1 [Compound 92A, (S,Z)-amino(2-(3-(3-(trifluoromethyl)-4-((3-(4-(trifluoromethyl)phenyl)allyl)oxy)phenyl)-1,2,4-oxadiazol-5-yl)pyrrolidin-1-yl)methaniminium 2,2,2-trifluoroacetate] | > 10 µM | < 1 µM
4 | CCCCCCOc1ccc2cc(-c3noc([C@@H]4CCCN4C(=N)N)n3)ccc2c1 [Compound 16A, (S)-amino(2-(3-(6-(hexyloxy)naphthalen-2-yl)-1,2,4-oxadiazol-5-yl)pyrrolidin-1-yl)methaniminium chloride] | > 10 µM | > 10 µM
5 | N=C(N)N1CCC[C@H]1c1nc(-c2ccc(OCCCc3ccc(Cl)c(Cl)c3)c(C(F)(F)F)c2)no1 [Compound 30A, (S)-amino(2-(3-(4-(3-(3,4-dichlorophenyl)propoxy)-3-(trifluoromethyl)phenyl)-1,2,4-oxadiazol-5-yl)pyrrolidin-1-yl)methaniminium chloride] | > 10 µM | < 1 µM
6 | CCCCCCCCn1ccc2ccc(-c3noc([C@@H]4CCCN4C(=N)N)n3)cc21 [Compound 75A, (S)-amino(2-(3-(1-octyl-1H-indol-6-yl)-1,2,4-oxadiazol-5-yl)pyrrolidin-1-yl)methaniminium chloride] | > 10 µM | > 10 µM
7 | N=C(N)N1CC[C@H](O)[C@H]1c1nc(-c2ccc(OCCCC3CCCCC3)c(C(F)(F)F)c2)no1 [Compound 95A, amino((2S,3S)-2-(3-(4-(3-cyclohexylpropoxy)-3-(trifluoromethyl)phenyl)-1,2,4-oxadiazol-5-yl)-3-hydroxypyrrolidin-1-yl)methaniminium chloride] | 1 to 10 µM | < 1 µM
8 | CCCCCCCCOc1ccc(-c2noc([C@@H]3CCCN3C(=N)N)n2)cc1C(F)(F)F [Compound 2B] | > 10 µM | –
9 | CC1(C)CCC(C)(C)c2cc(COc3ccc4cc(-c5noc([C@@H]6CCCN6C(=N)N)n5)ccc4c3)ccc21 [Compound 71A, (S)-amino(2-(3-(6-((5,5,8,8-tetramethyl-5,6,7,8-tetrahydronaphthalen-2-yl)methoxy)naphthalen-2-yl)-1,2,4-oxadiazol-5-yl)pyrrolidin-1-yl)methaniminium chloride] | – | > 10 µM
10 | CCCCOc1ccc2cc(-c3noc([C@@H]4CCCN4C(=N)N)n3)ccc2c1 [Compound 56A, (S)-amino(2-(3-(6-(butyloxy)naphthalen-2-yl)-1,2,4-oxadiazol-5-yl)pyrrolidin-1-yl)methaniminium chloride] | – | 1 to 10 µM
11 | CCCCCCCCCCCCn1cc(-c2noc([C@@H]3CCCN3C(=N)N)n2)c2ccccc21 [Compound 3A, (S)-amino(2-(3-(1-dodecyl-1H-indol-3-yl)-1,2,4-oxadiazol-5-yl)pyrrolidin-1-yl)methaniminium chloride] | – | < 1 µM
12 | N=C(N)N1CCC[C@H]1c1nc(-c2ccc3cc(OCc4ccc(C(F)(F)F)cc4)ccc3c2)no1 [Compound 52A, (S)-amino(2-(3-(6-((4-(trifluoromethyl)benzyl)oxy)naphthalen-2-yl)-1,2,4-oxadiazol-5-yl)pyrrolidin-1-yl)methaniminium chloride] | – | 1 to 10 µM
13 | CCCCCCCCCCn1cc(-c2noc([C@@H]3CCCN3C(=N)N)n2)c2ccccc21 [Compound 7A, (S)-amino(2-(3-(1-decyl-1H-indol-3-yl)-1,2,4-oxadiazol-5-yl)pyrrolidin-1-yl)methaniminium chloride] | – | < 1 µM
